Test results taken from patent US9381200B2, “Nitrogen containing compounds” (WOCKHARDT LIMITED, priority 2011, dated 2016).
Values after ≈ are worked out from the molar mass of the structure shown. Where two headings read alike, the source gives them in different places.

Tests used:
Experiment in all cases: Antibacterial activity (MIC), agar dilution per CLSI
Format in all cases: cell-based
E. coli M 50 = E. coli M 50 expressing ESBL, agar dilution
Description: (§1) The biological activity of representative compounds according to the invention against various bacterial strains was investigated. In a typical study, overnight grown bacterial cultures were diluted appropriately and inoculated on the agar media containing doubling dilutions of the test compounds. Observation for growth or no growth was performed after 16-20 hours of incubation at 35±2° C. in ambient air. The overall procedure was performed as per Clinical and Laboratory Standards Institute (CLSI) recommendations (Clinical and Laboratory Standards Institute (CLSI), Performance Standards for Antimicrobial Susceptibility Testing, 20th Informational Supplement, M 100-S20, Volume 30, No. 1, 2010).
The activities are expressed as MICs (mcg/ml).

E. coli NCTC 13351 = settings: 16-20 hours, 35±2° C.
Description: as §1
(§2) Table 3 details antibacterial activity of representative compounds according to the invention against various E. coli strains (NCTC 13351, M 50 and 7 MP) expressing ESBL (Extended Spectrum Beta Lactamases).

E. coli 7 MP = settings: Table 3, E. coli 7 MP expressing ESBL
Description: as §1, §2

[1] = Table 3, E. coli NCTC 13351 expressing ESBL
[2] = Escherichia coli, M50, Table 3, read-out: MIC
[3] = Escherichia coli, NCTC13351, Table 3, E. coli NCTC 13351 expressing ESBL, read-out: MIC
[4] = Escherichia coli, read-out: MIC

| SMILES | MIC (E. coli M 50; Table 3) [µg/mL] | MIC (E. coli NCTC 13351; [1]) [µg/mL] | MIC (E. coli 7 MP) [µg/mL] | MIC (E. coli M 50; [2]) [µg/mL] | MIC (E. coli NCTC 13351; [3]) [µg/mL] | MIC (E. coli 7 MP; [4]) [µg/mL] |
| --- | --- | --- | --- | --- | --- | --- |
| NCCCCC(=O)NNC(=O)[C@H]1CC[C@@H]2CN1C(=O)N2OS(=O)(=O)O (relative stereo) [Example 25, trans-sulfuric acid mono-[2-(N′-(5-amino-pentanoyl)-hydrazinocarbonyl)-7-oxo-1,6-diaza-bicyclo[3.2.1]oct-6-yl]ester] |  |  |  | 1 (≈ 2.64 µM) | 1 (≈ 2.64 µM) | 4 (≈ 10.5 µM) |
| NCCOCC(=O)NNC(=O)[C@H]1CC[C@@H]2CN1C(=O)N2OS(=O)(=O)O (relative stereo) [Example 27, trans-sulfuric acid mono-[2-(N′-((2-aminoethoxy)-acetyl)-hydrazinocarbonyl)-7-oxo-1,6-diaza-bicyclo[3.2.1]oct-6-yl]ester] |  |  |  | 2 (≈ 5.24 µM) | 4 (≈ 10.5 µM) | 8 (≈ 21 µM) |
| O=C(CC[C@@H]1CCCN1)NNC(=O)[C@H]1CC[C@@H]2CN1C(=O)N2OS(=O)(=O)O (relative stereo) [Example 31, trans-sulfuric acid mono-[2-(N′—[((S)-3-pyrrolidin-2-yl)-propionyl]-hydrazinocarbonyl)-7-oxo-1,6-diaza-bicyclo[3.2.1]oct-6-yl]ester] | 1 (≈ 2.47 µM) | 1 (≈ 2.47 µM) | 4 (≈ 9.87 µM) |  |  |  |
| O=C(CC(=O)N1CCNCC1)NNC(=O)[C@H]1CC[C@@H]2CN1C(=O)N2OS(=O)(=O)O (relative stereo) [Example 40, trans-sulfuric acid mono-[2-(N′-(3-oxo-3-piperazin-1-yl-propionyl)-hydrazinocarbonyl)-7-oxo-1,6-diaza-bicyclo[3.2.1]oct-6-yl]ester] |  |  |  | 1 (≈ 2.3 µM) | 1 (≈ 2.3 µM) | 4 (≈ 9.21 µM) |
| Nc1nc(C(=O)NNC(=O)[C@H]2CC[C@@H]3CN2C(=O)N3OS(=O)(=O)O)cs1 (relative stereo) [Example 42, trans-sulfuric acid mono-[2-(N′-(2-amino-thiazol-4-carbonyl)-hydrazinocarbonyl)-7-oxo-1,6-diaza-bicyclo[3.2.1]oct-6-yl]ester] |  |  |  | 32 (≈ 78.7 µM) | 32 (≈ 78.7 µM) | 64 (≈ 157 µM) |
| CC(C)(C)OC(=O)NNC(=O)[C@H]1CC[C@@H]2CN1C(=O)N2OS(=O)(=O)[O-].[Na+] (relative stereo) [Example 44, Sodium salt of trans-N′-(7-oxo-6-sulfooxy-1,6-diaza-bicyclo[3.2.1]octane-2-carboxylic acid)-hydrazinecarboxylic acid tert-butyl ester] | 32 | 32 | 64 |  |  |  |
| CC(C)(C#N)C(=O)NNC(=O)[C@H]1CC[C@@H]2CN1C(=O)N2OS(=O)(=O)[O-].[Na+] (relative stereo) [Example 51, Sodium salt of trans-sulfuric acid mono-[2-(N′-(cyano-dimethyl-acetyl)-hydrazinocarbonyl)-7-oxo-1,6-diaza-bicyclo[3.2.1]oct-6-yl]ester] | 16 | 16 | 32 |  |  |  |
| O=C(O)CON1C(=O)N2C[C@H]1CC[C@H]2C(=O)NNC(=O)[C@@H]1CCCNC1 [Example 4, trans-{7-oxo-2-[N′—((R)-piperidin-3-carbonyl)-hydrazinocarbonyl]-1,6-diaza-bicyclo[3.2.1]-oct-6-yloxy}-acetic acid] |  |  |  | 8 (≈ 21.7 µM) | 8 (≈ 21.7 µM) | 16 (≈ 43.3 µM) |

The next lines start with the values.

| MIC (E. coli M 50; Table 3) [µg/mL] | MIC (E. coli NCTC 13351; [1]) [µg/mL] | MIC (E. coli 7 MP) [µg/mL] | MIC (E. coli M 50; [2]) [µg/mL] | MIC (E. coli NCTC 13351; [3]) [µg/mL] | MIC (E. coli 7 MP; [4]) [µg/mL] | SMILES |
| --- | --- | --- | --- | --- | --- | --- |
| 1 (≈ 2.45 µM) | 1 (≈ 2.45 µM) | 4 (≈ 9.79 µM) |  |  |  | NC(=O)CCC(N)C(=O)NNC(=O)[C@H]1CC[C@@H]2CN1C(=O)N2OS(=O)(=O)O (relative stereo) [Example 24, trans-sulfuric acid mono-[2-(N′-(2-amino-4-carboxamido-butanoyl)-hydrazinocarbonyl)-7-oxo-1,6-diaza-bicyclo[3.2.1]oct-6-yl]ester] |
|  |  |  | 1 (≈ 2.75 µM) | 1 (≈ 2.75 µM) | 4 (≈ 11 µM) | O=C(NNC(=O)[C@H]1CC[C@@H]2CN1C(=O)N2OS(=O)(=O)O)C1CNC1 (relative stereo) [Example 28, trans-sulfuric acid mono-[2-(N′-[azetidin-3-carbonyl]-hydrazinocarbonyl)-7-oxo-1,6-diaza-bicyclo[3.2.1]oct-6-yl]ester] |
|  |  |  | 16 (≈ 42.4 µM) | 32 (≈ 84.8 µM) | 128 (≈ 339 µM) | O=C(NNC(=O)N1CCCC1)[C@H]1CC[C@@H]2CN1C(=O)N2OS(=O)(=O)O (relative stereo) [Example 29, trans-sulfuric acid mono-[2-(N′-[pyrrolidin-1-carbonyl]-hydrazinocarbonyl)-7-oxo-1,6-diaza-bicyclo[3.2.1]oct-6-yl]ester] |
| 64 | 32 | 128 |  |  |  | O=C(NNC(=O)N1CCOCC1)[C@H]1CC[C@@H]2CN1C(=O)N2OS(=O)(=O)O.[Na] (relative stereo) [Example 47, Sodium salt of trans-sulfuric acid mono-[2-(N′-(morpholin-4-oxo-carbonyl)-hydrazinocarbonyl)-7-oxo-1,6-diaza-bicyclo[3.2.1]oct-6-yl]ester] |
| 8 | 16 | 32 |  |  |  | NC(=O)N1CCC[C@H]1C(=O)NNC(=O)[C@H]1CC[C@@H]2CN1C(=O)N2OS(=O)(=O)[O-].[Na+] (relative stereo) [Example 48, Sodium salt of trans-sulfuric acid mono-[2-(N′—[(S)-1-carbamoyl-pyrrolidin-2-carbonyl]-hydrazinocarbonyl)-7-oxo-1,6-diaza-bicyclo [3.2.1]oct-6-yl]ester] |
| 16 | 32 | 16 |  |  |  | NC(=O)N1C[C@@H](F)C[C@H]1C(=O)NNC(=O)C1CCC2CN1C(=O)N2OS(=O)(=O)[O-].[Na+] (relative stereo) [Example 49, Sodium salt of trans-sulfuric acid mono-[2-(N′—[(2S,4S)-1-carbamoyl-4-fluoro-pyrrolidin-2-carbonyl]-hydrazinocarbonyl)-7-oxo-1,6-diaza-bicyclo[3.2.1]oct-6-yl]ester] |
| 16 | 16 | 32 |  |  |  | CS(=O)(=O)N1CCC[C@H]1C(=O)NNC(=O)[C@H]1CC[C@@H]2CN1C(=O)N2OS(=O)(=O)[O-].[Na+] (relative stereo) [Example 50, Sodium salt of trans-sulfuric acid mono-[2-(N′—[(S)-1-methanesulfonyl-pyrrolidin-2-carbonyl]-hydrazinocarbonyl)-7-oxo-1,6-diaza-bicyclo[3.2.1]oct-6-yl]ester] |
| 0.5 | 0.5 | 2 |  |  |  | O=C1CC[C@@H](C(=O)NNC(=O)[C@H]2CC[C@@H]3CN2C(=O)N3OS(=O)(=O)[O-])N1.[Na+] (relative stereo) [Example 52, Sodium salt of trans-sulfuric acid mono-[2-(N′—[(S)-5-oxo-pyrrolidin-2-carbonyl]-hydrazinocarbonyl)-7-oxo-1,6-diaza-bicyclo[3.2.1]oct-6-yl]ester] |
| 8 | 4 | 8 |  |  |  | O=C(CN1CCOCC1)NNC(=O)C1CCC2CN1C(=O)N2OS(=O)(=O)[O-].[Na+] (stereo not drawn) [Example 45, Sodium salt of trans-sulfuric acid mono-[2-(N′-(morpholin-4-yl-acetyl)-hydrazinocarbonyl)-7-oxo-1,6-diaza-bicyclo[3.2.1]oct-6-yl]ester] |
